≈ marks a conversion by molar mass, not a printed value. Structures can show the parent of a compound that is named as a salt.
What was measured:
[1] = cited from earlier work; for Ambient Solution pH: commercial drug solution; for pH beyond which significant precipitation occurs: intravenous infusion, commercial drugs
[2] = system: Marginal Ear Vein of Rabbits; experiment: Peripheral vein irritation on intravenous infusion, rabbits (Table IV); format: in vivo, rabbit; parameters: key: +: Positive or present; -: Negative or absent; conditions: 2 hour i.v. infusion, gross postmortem one day after
Description: The emulsion drug delivery system formulation of Emulsions 3 and 4 in Table III was tested in two species of animals, for peripheral vein irritation in order to determine the occurrence of local injection site adverse reactions. […] The two species of animals used were rabbits and dogs. The formulations were given intravenously in a peripheral vein using a Butterfly infusion set (Becton, Dickenson Co., Inc., Rutherford, N.J.). The marginal ear vein was used in the rabbit and the saphenous or the cephalic vein of the leg was used in the dog.
The formulations were given by slow intravenous infusion using a Sage syringe pump (Sage Instruments, Orion Research Inc., Cambridge, MA) over a 2 hour period. The animals were restrained but unanesthetized during the infusion. After the infusion, the animals were returned to their cages and offered food. The animals were sacrificed one day after the infusion.
At sacrifice, the infused vein was opened from the point of infusion and cardiad for several centimeters. The condition of the vein, its intima and the surrounding parenchyma, as well as the presence or absence of orange-yellow material and/or clots in the vein, were recorded in Tables IV and V.

[3] = dissolved in oil phase of soybean oil emulsion, parenteral; cited from earlier work
[4] = cited from earlier work
[5] = challenge tests, benzyl alcohol vs parabens as preservative; cited from earlier work
[6] = Partitioning of bisantrene in blood; format: in vitro ADME; conditions: inferred from solubility characteristics and other information
Description: In serum and plasma, however, due to increase in the pH, the solubility drops considerably and this may be the reason that the drug precipitates at the point of infusion. […] Thus, if the drug can be kept in solution long enough to allow complete dilution in the entire blood volume, then the partitioning should take place without the intermediate precipitation.

[7] = Solubility of bisantrene in selected media and biological fluids (Table IB); format: physicochemical
soft tissues = conditions: extravasation about the site of attempted intravenous administration; cited from earlier work
[8] = Absorption and excretion of antiarthritic triazine candidate dosage forms; conditions: in vivo
Description: (§1) Because the antiarthritic triazine compound is a base, organic acids as counter-ions were studied to improve drug solubility. […] Additional drug complexes were prepared with various organic and inorganic acids. […] The inherent insolubility of the drug appears to be responsible, to some extent, for the preceding results. In order to overcome the drug insolubility problem one of the objectives considered was to design a dosage form which would improve drug absorption when given by intravenous, intramuscular or intra-articular injection.

physchem = format: physicochemical
Description: as §1

[9] = propylene glycol, benzyl alcohol and ethyl alcohol as solvents; cited from earlier work
normal human subjects = conditions: single doses of 2.0 g, 24 subjects, cited from earlier work
mammals = conditions: aqueous solution, intravenous; cited from earlier work

## CC(CN1c2ccccc2Sc2ccccc21)N(C)C (stereo not drawn) [Phenergan, promethazine]
[1]
  Ambient Solution pH: 5.68
  pH beyond which significant precipitation occurs: 6.42

## C(=N\NC1=NCCN1)/c1c2ccccc2c(/C=N/NC2=NCCN2)c2ccccc12 [Bisantrene HCl]
[2]; sex F
  External: Reddened: +
  External: Yellow Deposit: +
  Subcutaneous: Hemorrhage: -
  Vascular Lumen: Yellow Deposit: +
[2]; sex M
  External: Reddened: -
  External: Swollen: -
  External: Yellow Deposit: -
  Subcutaneous: Edema: +
  Subcutaneous: Hemorrhage: -
  Subcutaneous: Yellow Deposit: -
  Vascular Lumen: Blood Clot: -
  Vascular Lumen: Yellow Deposit: +

## CC(=O)Nc1ccc(OCC(O)CNC(C)C)cc1 (stereo not drawn) [Eraldin, practolol]
[1]
  Ambient Solution pH: 5.80
  pH beyond which significant precipitation occurs: 7.40

## CN(C)CCCN1c2ccccc2Sc2ccccc21 [Prazine, promazine]
[1]
  Ambient Solution pH: 4.85
  pH beyond which significant precipitation occurs: 7.10

## CC1CC(OC(=O)C(O)c2ccccc2)CC(C)(C)C1 (stereo not drawn) [cyclandelate]
[3]
  pharmacological effects compared with water solution of the sodium salts: nearly equal

## OCc1ccccc1 [benzyl alcohol]
[4]; 0.9% (w/v), intravenous
  acute systemic toxicity: absence of acute systemic toxicity
[4]; in vivo, iv
  half-life: 1.5 h
[4]; in vivo
  volume of distribution: widespread tissue dissemination
[5]
  antibacterial activity: higher antibacterial activity

## O=[N+]([O-])OCC(CO[N+](=O)[O-])O[N+](=O)[O-] [nitroglycerin]
[3]
  pharmacological effects compared with water solution of the sodium salts: nearly equal

## OCCOCCN1CCN(C(c2ccccc2)c2ccc(Cl)cc2)CC1 (stereo not drawn) [Atarax, hydroxyzine]
[1]
  Ambient Solution pH: 5.60
  pH beyond which significant precipitation occurs: 6.40

## OCCN(CCO)c1nc(N2CCCCC2)c2nc(N(CCO)CCO)nc(N3CCCCC3)c2n1 [Persantine, dipyridamole]
[1]
  Ambient Solution pH: 3.12
  pH beyond which significant precipitation occurs: 5.10

## CC(C)NCC(O)COc1cccc2ccccc12 (racemic) [Inderal, propanolol]
[1]
  Ambient Solution pH: 3.50
  pH beyond which significant precipitation occurs: 6.00

## COc1ccc2c(c1)N(C[C@H](C)CN(C)C)c1ccccc1S2 [Nozinan, levomepromize]
[1]
  Ambient Solution pH: 4.38
  pH beyond which significant precipitation occurs: 6.50

## C(=N\NC1=NCCN1)/c1c2ccccc2c(/C=N/NC2=NCCN2)c2ccccc12 [Bisantrene, bis(2-imidazolen-2-ylhydrazone)-9,10-anthracenedicarboxaldehyde]
[6]
  partitioning into erythrocytes: eventually partitions into the erythrocytes
[7]; 5% dextrose solution, pH 4.6
  solubility: 10000 µg/mL (≈ 25100 µM)
[7]; Plasma, pH 7.7-8.2
  solubility: 90 µg/mL (≈ 226 µM)
[7]; Whole Blood, pH 7.9
  solubility: 400 µg/mL (≈ 1000 µM)
[7]; normal saline, pH 5.5
  solubility: 2000 µg/mL (≈ 5020 µM)
[7]; serum, pH 7.8
  solubility: 27 µg/mL (≈ 67.8 µM)

## COc1cccc2c1C(=O)c1c(O)c3c(c(O)c1C2=O)C[C@@](O)(C(=O)CO)C[C@@H]3O[C@H]1C[C@H](N)[C@H](O)[C@H](C)O1 [Adriamycin]
Soft tissues
  tissue damage on extravasation: massive tissue necrosis

## O=C(CCCN1CC=C(n2c(=O)[nH]c3ccccc32)CC1)c1ccc(F)cc1 [Droperidol]
[1]
  Ambient Solution pH: 3.24
  pH beyond which significant precipitation occurs: 5.83

## CC(C)(C)C(C)(C)Nc1nc(NC(C)(C)C(C)(C)C)nc(N2CC3CCC(CC3)C2)n1 [Antiarthritic Triazine Compound, 3-[4,6-bis[(1,1-2,2-tetramethylpropyl)amino]-s-triazin-2-yl]-3-azabicyclo[3.2.2]nonane]
[8]
  parenteral absorption: negligible
[8]; po
  oral absorption: slightly better
[8]; oral, candidate dosage forms, preliminary, read-out: compound excreted in the feces
  dose excreted: ~90%
physchem
  increase of solubility: 0.5 to 1.0 mg/mL
  solubility: 300 µg/mL (≈ 697 µM)
  solubility in water: insignificant solubility in water
  solubility range: 0.5 to 1.5 mg/mL
physchem; 1,3-butylene glycol, organic solvent or mixture
  solubility: 300 µg/mL (≈ 697 µM)
physchem; benzyl alcohol, organic solvent or mixture
  solubility: 800 µg/mL (≈ 1860 µM)
physchem; benzyl benzoate, organic solvent or mixture
  solubility: 1300 µg/mL (≈ 3020 µM)
physchem; brij 35 2% solution
  solubility: 50 µg/mL (≈ 116 µM)
physchem; cremophor el, organic solvent or mixture
  solubility: 200 µg/mL (≈ 464 µM)
physchem; dimethyl acetamide, organic solvent or mixture
  solubility: 700 µg/mL (≈ 1630 µM)
physchem; emulphor el-620p, organic solvent or mixture
  solubility: < 100 µg/mL
physchem; ethanol usp, organic solvent or mixture
  solubility: < 100 µg/mL
physchem; propylene glycol isostearate, organic solvent or mixture
  solubility: 1500 µg/mL (≈ 3480 µM)
physchem; propylene glycol, organic solvent or mixture
  solubility: < 100 µg/mL
physchem; triacetin, organic solvent or mixture
  solubility: 100 µg/mL (≈ 232 µM)

## CN1C(=O)CN=C(c2ccccc2)c2cc(Cl)ccc21 [diazepam]
[3]
  pharmacological effects compared with water solution of the sodium salts: nearly equal
[9]
  local reactions upon intravenous injection: may not only cause pain upon intravenous injection, but also thrombophlebitis

## C[C@H](N)[C@H](O)c1cccc(O)c1 [Aramine, metaraminol]
[1]
  Ambient Solution pH: 3.60
  pH beyond which significant precipitation occurs: 5.80

## C[C@H]1C[C@@H]2[C@H]([C@@H](O)C[C@@]3(C)[C@H]2CC[C@]3(O)C(=O)COC(=O)CCC(=O)O)[C@@]2(C)C=CC(=O)C=C12 [methylprednisolone sodium succinate]
Normal human subjects; benzyl alcohol or paraben preservative
  tolerability / side effects: well tolerated and no important drug-related side effects were encountered
Normal human subjects
  changes in vital signs, electrocardiograms, electroencephalograms, or laboratory parameters: No clinically significant changes
  expected corticosteroid induced changes: reversible

## N#CC(CCN1CCC(C(N)=O)(N2CCCCC2)CC1)(c1ccccc1)c1ccccc1 [Dipidolor, piritramide]
[1]
  Ambient Solution pH: 3.97
  pH beyond which significant precipitation occurs: 4.50

## C(=N\NC1=NCCN1)/c1c2ccccc2c(/C=N/NC2=NCCN2)c2ccccc12 [bisantrene dihydrochloride]
mammals
  chemical phlebitis: chemical phlebitis
